Measured values reported in publication PMC6418145 (Scientific Reports, 2019).

How the values were obtained:
[1] = system: 5-HT1B serotonin receptor; test: Off-target radioligand binding; set-up: species or system human; settings: 10 μM compound
M2 muscarinic receptor = molecular target: T1, M2 muscarinic receptor (Homo sapiens, UniProt P08172); test: Off-target radioligand binding; settings: 10 μM compound
T1 construct: expressed in transfected cells; host or cells: HEK-293 or CHO

[2] = molecular target: T2, 5-HT1A serotonin receptor (Homo sapiens, UniProt P08908); test: Off-target radioligand binding; settings: 10 μM compound
T2 construct: expressed in transfected cells; host or cells: HEK-293 or CHO

PDE4D2 = PDE4D2 (Homo sapiens, UniProt Q08499); test: Off-target enzyme assay; type: biochemical; settings: 10 μM compound, not shown
PDE3A = PDE3A (Homo sapiens, UniProt Q14432); test: Off-target enzyme assay; type: biochemical; settings: 10 μM compound, not shown
AChE = AChE (Homo sapiens, UniProt P22303); settings: 10 μM compound, not shown
H1 histamine receptor = molecular target: T3, H1 histamine receptor (Homo sapiens, UniProt P35367); test: Off-target radioligand binding
T3 construct: expressed in transfected cells; host or cells: HEK-293 or CHO

α2A adrenoreceptor = molecular target: T4, α2A adrenoreceptor (Homo sapiens, UniProt P08913); test: Off-target radioligand binding; settings: 10 μM compound
T4 construct: expressed in transfected cells; host or cells: HEK-293 or CHO
T4 sequence (P08913 whole entry): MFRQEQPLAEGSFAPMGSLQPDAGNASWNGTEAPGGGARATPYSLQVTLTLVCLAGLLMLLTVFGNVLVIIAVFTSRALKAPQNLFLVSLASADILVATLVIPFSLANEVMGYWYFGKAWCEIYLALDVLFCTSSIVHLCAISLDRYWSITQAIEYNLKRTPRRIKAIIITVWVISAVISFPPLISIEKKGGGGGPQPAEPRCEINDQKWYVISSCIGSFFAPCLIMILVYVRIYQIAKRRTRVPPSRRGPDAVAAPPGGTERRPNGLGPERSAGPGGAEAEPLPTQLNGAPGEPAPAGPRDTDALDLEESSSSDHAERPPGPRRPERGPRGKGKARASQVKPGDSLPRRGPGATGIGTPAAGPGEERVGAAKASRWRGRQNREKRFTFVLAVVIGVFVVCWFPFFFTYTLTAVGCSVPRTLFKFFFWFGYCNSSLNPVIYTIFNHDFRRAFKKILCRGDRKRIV

T3 sequence (P35367 whole entry): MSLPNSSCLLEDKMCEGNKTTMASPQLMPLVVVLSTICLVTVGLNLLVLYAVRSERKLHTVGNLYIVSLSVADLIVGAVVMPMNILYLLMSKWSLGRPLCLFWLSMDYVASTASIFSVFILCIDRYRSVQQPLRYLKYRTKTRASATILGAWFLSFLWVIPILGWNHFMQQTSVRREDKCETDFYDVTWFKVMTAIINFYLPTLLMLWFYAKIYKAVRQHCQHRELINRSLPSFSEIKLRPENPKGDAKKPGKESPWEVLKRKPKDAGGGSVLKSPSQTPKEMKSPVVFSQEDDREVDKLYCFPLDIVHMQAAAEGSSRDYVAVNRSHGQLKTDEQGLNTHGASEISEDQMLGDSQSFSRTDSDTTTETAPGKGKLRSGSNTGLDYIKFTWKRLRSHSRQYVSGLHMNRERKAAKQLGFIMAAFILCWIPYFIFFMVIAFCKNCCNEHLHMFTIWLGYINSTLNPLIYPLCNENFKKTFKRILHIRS
Chain of PDE4D2 (Q08499 303-809): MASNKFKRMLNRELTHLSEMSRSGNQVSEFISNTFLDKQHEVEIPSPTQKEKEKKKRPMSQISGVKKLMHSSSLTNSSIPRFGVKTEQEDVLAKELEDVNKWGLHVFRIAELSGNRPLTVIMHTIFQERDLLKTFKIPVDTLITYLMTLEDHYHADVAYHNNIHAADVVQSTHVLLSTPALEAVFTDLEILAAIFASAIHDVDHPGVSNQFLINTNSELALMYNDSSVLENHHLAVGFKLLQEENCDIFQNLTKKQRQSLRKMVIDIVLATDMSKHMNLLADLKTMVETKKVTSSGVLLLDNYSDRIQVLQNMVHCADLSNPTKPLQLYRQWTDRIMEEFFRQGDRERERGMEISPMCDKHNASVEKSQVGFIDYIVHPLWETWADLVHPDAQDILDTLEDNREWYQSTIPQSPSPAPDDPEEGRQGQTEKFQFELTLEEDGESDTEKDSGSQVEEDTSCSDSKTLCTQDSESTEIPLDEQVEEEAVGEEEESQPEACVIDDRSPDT
T1 sequence (P08172 whole entry): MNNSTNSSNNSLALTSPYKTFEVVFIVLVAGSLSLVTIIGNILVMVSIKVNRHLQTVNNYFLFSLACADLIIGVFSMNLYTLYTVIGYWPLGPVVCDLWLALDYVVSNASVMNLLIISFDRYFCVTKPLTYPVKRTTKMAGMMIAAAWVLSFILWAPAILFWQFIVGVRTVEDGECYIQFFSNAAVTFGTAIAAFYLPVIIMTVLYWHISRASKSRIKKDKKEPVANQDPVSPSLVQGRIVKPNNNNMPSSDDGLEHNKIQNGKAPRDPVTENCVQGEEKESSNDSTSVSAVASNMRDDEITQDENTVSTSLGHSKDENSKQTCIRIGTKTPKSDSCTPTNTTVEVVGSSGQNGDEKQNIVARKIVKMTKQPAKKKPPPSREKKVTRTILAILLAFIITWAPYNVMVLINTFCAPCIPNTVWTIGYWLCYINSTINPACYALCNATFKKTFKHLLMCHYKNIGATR
T2 sequence (P08908 whole entry): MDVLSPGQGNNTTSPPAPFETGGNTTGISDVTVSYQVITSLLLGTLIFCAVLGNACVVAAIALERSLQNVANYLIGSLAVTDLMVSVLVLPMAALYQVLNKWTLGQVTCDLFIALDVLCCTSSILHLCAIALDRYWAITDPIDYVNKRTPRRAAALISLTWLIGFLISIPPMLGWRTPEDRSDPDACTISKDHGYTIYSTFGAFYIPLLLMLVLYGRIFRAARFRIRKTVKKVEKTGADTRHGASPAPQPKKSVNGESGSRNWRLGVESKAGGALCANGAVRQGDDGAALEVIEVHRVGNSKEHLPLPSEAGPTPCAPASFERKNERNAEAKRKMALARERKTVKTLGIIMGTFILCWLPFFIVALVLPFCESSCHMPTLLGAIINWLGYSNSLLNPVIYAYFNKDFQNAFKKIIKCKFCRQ
Chain of PDE3A (Q14432 whole entry, species assumed): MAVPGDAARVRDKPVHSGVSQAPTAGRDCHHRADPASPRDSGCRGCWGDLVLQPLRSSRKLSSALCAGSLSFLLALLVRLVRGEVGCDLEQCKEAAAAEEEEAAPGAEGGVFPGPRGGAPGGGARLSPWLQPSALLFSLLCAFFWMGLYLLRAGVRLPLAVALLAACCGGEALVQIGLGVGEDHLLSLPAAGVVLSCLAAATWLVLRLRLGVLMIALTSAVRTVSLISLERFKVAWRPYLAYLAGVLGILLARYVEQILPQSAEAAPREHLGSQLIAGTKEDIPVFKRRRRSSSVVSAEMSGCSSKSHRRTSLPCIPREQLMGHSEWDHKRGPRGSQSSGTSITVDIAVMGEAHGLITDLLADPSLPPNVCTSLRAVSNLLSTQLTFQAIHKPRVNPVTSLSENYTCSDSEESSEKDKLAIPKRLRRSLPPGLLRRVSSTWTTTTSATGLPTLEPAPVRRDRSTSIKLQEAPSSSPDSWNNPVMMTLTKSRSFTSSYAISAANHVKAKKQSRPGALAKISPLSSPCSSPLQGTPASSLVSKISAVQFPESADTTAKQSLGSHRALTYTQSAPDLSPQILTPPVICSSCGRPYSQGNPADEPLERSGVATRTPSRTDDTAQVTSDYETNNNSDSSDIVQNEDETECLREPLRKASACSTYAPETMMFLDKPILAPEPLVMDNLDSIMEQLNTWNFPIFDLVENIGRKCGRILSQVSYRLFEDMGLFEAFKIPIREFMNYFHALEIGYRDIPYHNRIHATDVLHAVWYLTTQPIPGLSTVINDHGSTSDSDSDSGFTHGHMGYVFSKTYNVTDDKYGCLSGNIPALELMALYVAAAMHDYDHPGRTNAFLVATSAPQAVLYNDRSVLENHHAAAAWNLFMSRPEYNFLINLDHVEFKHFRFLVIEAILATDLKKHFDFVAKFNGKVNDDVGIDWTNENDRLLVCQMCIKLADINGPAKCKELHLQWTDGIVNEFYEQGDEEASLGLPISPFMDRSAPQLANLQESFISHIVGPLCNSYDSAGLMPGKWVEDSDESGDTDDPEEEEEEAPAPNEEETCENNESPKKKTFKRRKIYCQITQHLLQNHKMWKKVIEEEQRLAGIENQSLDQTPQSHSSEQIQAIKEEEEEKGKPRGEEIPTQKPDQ
Chain of AChE (P22303 32-614): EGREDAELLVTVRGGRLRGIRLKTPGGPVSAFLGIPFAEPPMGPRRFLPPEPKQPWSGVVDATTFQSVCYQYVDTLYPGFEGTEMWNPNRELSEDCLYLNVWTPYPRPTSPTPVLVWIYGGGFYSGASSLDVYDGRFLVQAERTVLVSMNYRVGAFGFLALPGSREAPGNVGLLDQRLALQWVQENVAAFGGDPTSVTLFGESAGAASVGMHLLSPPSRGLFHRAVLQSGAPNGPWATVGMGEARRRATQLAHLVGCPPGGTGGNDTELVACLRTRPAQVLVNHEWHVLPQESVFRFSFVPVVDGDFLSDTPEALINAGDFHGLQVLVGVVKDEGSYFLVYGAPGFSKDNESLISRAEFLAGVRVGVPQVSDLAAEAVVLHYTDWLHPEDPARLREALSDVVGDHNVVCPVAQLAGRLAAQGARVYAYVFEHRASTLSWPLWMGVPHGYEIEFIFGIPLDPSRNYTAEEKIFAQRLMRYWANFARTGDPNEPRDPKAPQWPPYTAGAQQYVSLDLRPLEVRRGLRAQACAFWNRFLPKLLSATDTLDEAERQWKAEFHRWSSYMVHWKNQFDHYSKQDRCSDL

Q: What does the source list for `C[N+]1([O-])CCN(C2=Nc3cc(Cl)ccc3Nc3ccccc32)CC1` [CNO, clozapine-N-oxide]?
A: competitive inhibition of ligand binding [1]: over 50%; competitive inhibition of ligand binding (M2 muscarinic receptor): over 50%; competitive inhibition of ligand binding [2]: over 50%; inhibition (PDE4D2): < 20%; inhibition (PDE3A): < 20%; inhibition (AChE): < 20%; competitive inhibition of ligand binding (H1 histamine receptor; 10 μM compound): over 50%; Ki (H1 histamine receptor; bound stated in discussion): < 0.1 µM; competitive inhibition of ligand binding (α2A adrenoreceptor): over 50%
